Assay results published in BindingDB's records for doi:10.1007/s00210-003-0860-y (UniversitÄT WÜRzburg, 2004).
Counter-ions that a name gives are not always drawn.

Legend:
[1] = molecular target: Beta-3 adrenergic receptor (Homo sapiens, UniProt P13945)
[2] = molecular target: Beta-2 adrenergic receptor (Homo sapiens, UniProt P07550)
Chain of Beta-2 adrenergic receptor (P07550 whole entry): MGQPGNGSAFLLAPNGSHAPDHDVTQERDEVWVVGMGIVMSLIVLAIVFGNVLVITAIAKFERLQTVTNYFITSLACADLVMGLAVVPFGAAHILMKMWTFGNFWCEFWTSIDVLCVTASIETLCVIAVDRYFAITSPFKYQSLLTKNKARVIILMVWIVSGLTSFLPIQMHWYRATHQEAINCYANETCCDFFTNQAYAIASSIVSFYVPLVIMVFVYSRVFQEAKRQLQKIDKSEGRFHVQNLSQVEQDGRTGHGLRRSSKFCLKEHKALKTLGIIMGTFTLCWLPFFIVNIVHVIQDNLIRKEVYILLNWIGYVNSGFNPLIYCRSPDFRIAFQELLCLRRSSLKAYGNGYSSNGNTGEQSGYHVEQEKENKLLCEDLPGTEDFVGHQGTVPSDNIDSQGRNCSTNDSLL

Chain of Beta-3 adrenergic receptor (P13945 whole entry): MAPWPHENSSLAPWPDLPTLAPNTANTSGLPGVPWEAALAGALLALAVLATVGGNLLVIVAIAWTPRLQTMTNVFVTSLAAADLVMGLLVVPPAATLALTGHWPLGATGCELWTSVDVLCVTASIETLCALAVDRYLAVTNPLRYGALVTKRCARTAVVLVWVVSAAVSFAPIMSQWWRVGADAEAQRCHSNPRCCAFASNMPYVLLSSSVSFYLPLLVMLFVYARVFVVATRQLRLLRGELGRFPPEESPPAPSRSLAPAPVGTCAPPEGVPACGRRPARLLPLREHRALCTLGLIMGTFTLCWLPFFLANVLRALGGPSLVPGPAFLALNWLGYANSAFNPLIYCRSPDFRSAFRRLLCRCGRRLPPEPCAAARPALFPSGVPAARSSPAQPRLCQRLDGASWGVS

| Compound | Ki [1] [µM] | Ki [2] [nM] |
| --- | --- | --- |
| CC(C)(C)NCC(O)c1cc(O)cc(O)c1 (racemic) [Terbutaline,(+/-)] | > 10 | – |
| CC(Cc1ccc(OCC(=O)O)cc1)NCC(O)c1cccc(Cl)c1 (centres undefined) [CAS_2437] | – | 9170 |
| CNCC(O)c1ccc(O)c(O)c1 (centres undefined) [EPINEPHRINE] | > 10 | – |

The remaining lines, values ahead:

| Ki [1] [µM] | Ki [2] [nM] | Compound |
| --- | --- | --- |
| 0.0771 | – | CC(C)(C)NCC(O)COc1cccc2[nH]c(=O)[nH]c12 (centres undefined) [4-[3-(tert-butylamino)-2-hydroxypropoxy]-2,3-dihydro-1H-1,3-benzodiazol-2-one hydrochloride] |
| 0.122 | 61.9 | CCc1ccccc1OC[C@@H](O)CN[C@H]1CCCc2ccccc21 [CAS_174689-39-5] |
| 3.99 | 1290 | CC(C)(C)NCC(O)c1cc(Br)no1 (centres undefined) [NSC_71149] |
| 7.18 | – | OCc1cc(C(O)CNCCCCCCOCCCCc2ccccc2)ccc1O (centres undefined) [salmeterol xinafoate] |
